According to patent US20090061022A1, “Pharmaceutical composition comprising arsenite for the treatment of malignancy” (priority 2004, published 2009):
Marks after values point to notes of the source that are not given here.

Experiments:
[1] = test system: RXF 944LX; test: Anticancer activity in RXF 944LX cancer bearing nude mice, intermittent and daily schedules; conditions: for MTD: i.p., RXF 944LX
Description: Cancer fragments (1-2 mm in diameter), obtained from xenografts in serial passage in nude mice, were implanted subcutaneously (S.C.) in a flank of male NRMI nude mice (one fragment per mouse). Mice with appropriate cancer volumes (5-7 mm in diameter) were randomly distributed to treatment and control groups (4 mice/group). The start of treatment was day 0. Cancer volume and body weights were measured at least twice per week.
The cancer volume of each animal was determined by two-dimensional measurement using calipers. The volume was calculated according to the formula: (a×b^2)×0.5; wherein a and b represent two perpendicular diameters in which a (length) is the larger diameter and b (width) the smaller diameter.
Relative cancer volumes (RCV) were calculated for each individual cancer by dividing the cancer volume on day X by the cancer volume on day 0 multiplied by 100%. The cancer volume of a treatment group was expressed as the median RCV of all mice of the group. Median RCV values were used for drawing growth curves and treatment evaluation. Optimal cancer growth inhibition at a particular day within the treatment period was calculated from the median RCV values of the treated (T) versus the controlled (C) group multiplied by 100%. A T/C value<50% was considered as anti-cancer activity.
In the experiment with renal cancer RXF 944LX, the anticancer activity of the compounds was explored using two administration schedules; 1) intermittent schedule of 4 days×3, and 2) a daily schedule for 2 weeks (days 0-4, 7-11).
The dose levels chosen for sodium meta-arsenite and arsenic acid sodium salt in these schedules were based on the experience in the 1st experiment. Additional small dose finding studies were executed.

[2] = Subacute toxicity study, daily oral gavages for 14 days in the mouse, 28-day recovery; format: in vivo, CD-1 male mice; conditions: for Hematology: day 5 and end of treatment
Description: The nature and purpose of this subacute oral toxicity study was to determine the extent to which cumulative toxicity occurred with repeated administration of sodium meta-arsenite for 14 days to mice. Moreover, the study was intended to define the most likely target organs for toxicity and to investigate the reversibility of toxicity.
Ampoules of sodium meta-arsenite (dissolved in 10% (w/v) glucose in water) in concentrations of 0, 1.6 and 3.2 mg/ml were stored in a refrigerator in the dark. Based on the previous study, the following doses were selected: 0, 16 (½ MTD) and 32 mg/kg/day (MTD). Each dose was administered daily by oral gavages to groups of 20 CD-1 male mice for 14 days, followed by a 28-day recovery period.
Ten animals of each group were killed on day 15 (main groups). The remaining animals (recovery groups) were killed on day 43 after a recovery period of 28 days. Blood samples were collected from all main group animals on day 5 to determine effects on the hematology. Blood samples were also collected at the end of the treatment period (day 15, all main group animals) and after recovery (day 43, all recovery group animals) for hematology and clinical biochemistry.
Clinical signs were evaluated daily and body weights were recorded twice weekly. Macroscopic examination was performed at termination. Organ weight measurements were performed at scheduled termination, i.e. day 15 (main groups) and day 43 (recovery groups). Microscopic examination was performed on a selection of tissues of both main and recovery animals.

[3] = test system: ALL-SCID 4; test: Anticancer activity in human leukemia model ALL-SCID 4; conditions: for BW loss % (day) / Drug-related deaths: days 34-54
From the text: Anticancer activity of the sodium meta-arsenite and arsenic trioxide against two human paediatric acute lymphoblastic leukemia (ALL) models in vivo, ALL-SCID 4 was investigated to compare.
Male NOD/SCID mice (deficient in T and B lymphocytes, NK cells and functional macrophages) were transplanted s.c. on day 0 with fragments of ALL-SCID 4 cancers, which were obtained from mice used for routine passage of the cancers. Mice were randomized to the scheduled treatment groups.
Sodium meta-arsenite was administered orally at 2, 4 and 6 mg/kg/day (⅓ MTD, ⅔ MTD and MTD) once every day from day 34-54 after transplantation. The vehicle control (5% glucose in water) was administered i.p. (10 ml/kg).
Sodium meta-arsenite was dissolved in ready-to-use sterile infusion (5% (w/v) glucose in aqua injectabila). Arsenic trioxide was dissolved in 25 mM NaOH then dissolved in 5% glucose in aqua injectabila. The solutions were prepared freshly on the day of therapy for each administration.

[4] = 8 mg/kg i.p., days 0-4, 7, 14-18

For `O=[As][O-].[Na+]` [Sodium meta-arsenite, sodium meta-arsenite], the “BW loss % (day)” value ([1]; 4 mg/kg i.p., days 0-4, 7-11) was −3 (7) %, the Drug-related deaths ([1]; 4 mg/kg i.p., days 0-4, 7-11) was 2/6 and the “SGD (specific growth delay)” value ([1]; 4 mg/kg i.p., days 0-4, 7-11) was 0.1. The T/C % ([1]; 4 mg/kg i.p., days 0-4, 7-11) was 55%, the “BW loss % (day)” value ([1]; 5 mg/kg i.p., days 0, 4, 8) was −2 (3) % and the Drug-related deaths ([1]; 5 mg/kg i.p., days 0, 4, 8) was 0/6. The “SGD (specific growth delay)” value ([1]; 5 mg/kg i.p., days 0, 4, 8) was −0.5, the T/C % ([1]; 5 mg/kg i.p., days 0, 4, 8) was 84% and the “BW loss % (day)” value [1, 4] was −14 (10) %. For the same compound, the Drug-related deaths [1, 4] was 3/6, the Drug-related deaths ([1]; 10 mg/kg i.p., days 0, 4, 8) was 5/6 and the MTD ([1]; daily schedule (days 0-4, 7-11)) was 4 mg/kg/day. The MTD ([1]; intermittent schedule (4 days×3)) was 5 mg/kg/day, the Clinical signs ([2]; 16 mg/kg/day oral 14 days, mouse) was “swelling of the abdomen and piloerection” and the Hematology ([2]; 16 mg/kg/day) was “lower erythrocyte count, hemoglobin and haematocrit”. For the same compound, the Microscopic examination ([2]; 16 mg/kg/day, end of treatment) was “atrophy of the lymphoid organs (Peyer's patches, thymus), ulceration and hyperplasia of the fore stomach epithelium, necrosis of liver and gall bladder and myeloid hyperplasia and congestion of the sternal bone marrow”, the Necropsy findings ([2]; 16 mg/kg/day, end of treatment) was “crateriform retractions of the fore stomach” and the Clinical signs ([2]; 32 mg/kg/day oral 14 days, mouse) was “swelling of the abdomen and piloerection”. The “Premature mortality during the treatment phase, males” value ([2]; 32 mg/kg/day oral 14 days, groups of 20 male mice) was 7, the Necropsy findings ([2]; 32 mg/kg/day, after treatment) was “crateriform retractions of the forestomach and a reduced thymus size” and the Hematology ([2]; 32 mg/kg/day) was “Lower leucocyte count, platelet count, affected erythrocyte parameters (lower erythrocyte count, hemoglobin and haematocrit) and low reticulocyte counts”. The Clinical biochemistry ([2]; 32 mg/kg/day, end of treatment) was “Decreased glucose, total protein and albumin concentrations and increased sodium, calcium and inorganic phosphorus concentrations”, the Microscopic examination ([2]; 32 mg/kg/day, end of treatment) was “atrophy of the lymphoid organs (mesenteric and mandibular lymph nodes, Peyer's patches, spleen and thymus), ulceration and hyperplasia of the fore stomach epithelium, ulceration of the caecum, necrosis of the liver and gall bladder” and the Organ weights ([2]; 32 mg/kg/day, end of treatment) was “Decreased absolute and relative spleen and thymus weight and increased relative liver weight”. For the same compound, the “Main target organs for toxicity” value ([2]; 16 and 32 mg/kg/day oral 14 days, mouse) was “bone marrow, lymphoid organs and the forestomach”, the “BW loss % (day)” value ([3]; 2 mg/kg p.o.) was 0 (44) % and the Drug-related deaths ([3]; 2 mg/kg p.o.) was 0/8. The T/C % ([3]; 2 mg/kg p.o., days 34-54 (⅓ MTD)) was 38* %, the T/C % ([3]; 2 mg/kg p.o., days 34-54 (⅓ MTD), listed as sodium meta-arsenite) was 38% and the “BW loss % (day)” value ([3]; 4 mg/kg p.o.) was “+5 (44) %”. The Drug-related deaths ([3]; 4 mg/kg p.o.) was 0/8, the T/C % ([3]; 4 mg/kg p.o., days 34-54 (⅔ MTD)) was 55* % and the T/C % ([3]; 4 mg/kg p.o., days 34-54 (⅔ MTD), listed as sodium meta-arsenite) was 55%. For the same compound, the “BW loss % (day)” value ([3]; 6 mg/kg p.o.) was “+5 (44) %”, the Drug-related deaths ([3]; 6 mg/kg p.o.) was 0/8 and the T/C % ([3]; 6 mg/kg p.o., days 34-54 (MTD)) was 48* %. The T/C % ([3]; 6 mg/kg p.o., days 34-54 (MTD), listed as sodium meta-arsenite) was 48%, the MTD ([3]; small dose finding studies prior to the ALL-SCID 4 study) was 6 mg/kg/day and the “Body weight loss and lethality” value ([3]; treated groups 2, 4, 6 mg/kg/day p.o.) was “not observed”.
